Assay results reported in patent publication US8268853B2, “3,9-diazaspiro[5,5]undecane amides and ureas and methods of use thereof” (Abbott Laboratories, priority 2009, dated 2012).

Experiments:
[1] = target: T1, human α4β2 NNR (Homo sapiens, UniProt P17787+P43681); test: Calcium flux assay (FLIPR), potentiation of submaximal nicotine response in HEK 293 cells expressing α4β2; format: cell-based; details: HEK 293 cells expressing human α4β2; potentiation of submaximal (EC20-30%) agonist such as nicotine; read-out: EC50 (α4β2 PAM)
T1 construct: expressed in transfected cells
Excerpt: One manner to characterize α4β2 PAM activity is by characterization in clonal cell lines (for example, human embryonic kidney 293 cells) expressing the human neuronal nicotinic acetylcholine receptor subtype α4β2, particularly by use of Fluorescent Image Plate Reader technology. Effects on calcium flux or membrane potential changes can be assessed. Such assays have been reported and further details for carrying out the assays can be obtained in International Publication No. WO 2006/114400. Another method to identify and characterize allosteric modulator activity is by expressing the α4β2 subunits in Xenopus oocytes, and by measuring electrophysiological effects on ligand-evoked current responses as previously described in Curtis, L., et al., Molecular Pharmacology, 61: 127-135, 2002.
To determine the effectiveness of representative compounds of this invention as ligands for α4β2 PAM activity, the compounds of the invention can be evaluated according to the Calcium Flux Assay described below.
Calcium Flux Assays using Cells Expressing NNR Subtypes
Human embryonic kidney (HEK) 293 cells stably expressing human α4β2 or α3β4 combinations are grown to confluency in 162 cm^2 tissue culture flasks in DMEM media supplemented with 10% FBS and 25 μg/mL zeocin and 200 μg/mL hygromycin B. Cells expressing rat or ferret subunits may also be used. For assessing α3* or α7* selectivity, IMR-32 cells may also be used. IMR-32 neuroblastoma cells (ATCC) are grown to confluency in 162 cm^2 tissue culture flasks in minimum essential media supplemented with 10% FBS and 1 mM sodium pyruvate, 1% non-essential amino acids and 1% antibiotic-antimycotic. For the calcium flux assay, the cells are then dissociated using cell dissociation buffer and 100-150 μL per well of 3.5×10^5 cells/mL cell suspension (˜50,000-100,000 cells/well) was plated into 96-well black plates (poly-D-lysine precoated) with clear bottom and maintained for 24-48 hours in a tissue culture incubator at 37° C. under an atmosphere of 5% CO2: 95% air. Other clonal cell lines or primary cell cultures that express endogenous α4* nicotinic receptors may also be used in this assay. Calcium flux was measured using calcium-3 assay kit (Molecular Devices, Sunnyvale, Calif.) or fluo-4 (Invitrogen). A stock solution of the dye was prepared by dissolving each vial supplied by the vendor in Hank's balanced salt solution buffer (HBSS) or 150 mM NMDG, 20 mM calcium chloride containing 10 mM HEPES. The stock solution was diluted 1:20 using the same buffer before use. The growth media was removed from the cells. The cells were loaded with 100 μL of the dye per well and incubated at room temperature for up to one hour for HEK 293 clonal stable cell lines or 30 minutes-45 minutes at 37° C. for IMR-32 cells. Fluorescence measurements were read simultaneously from all the wells by a Fluorometic Imaging Plate Reader (FLIPR) at an excitation wavelength of 480 nm and an emission wavelength of 520 nm. Baseline fluorescence was measured for the first 6 seconds at which 3× concentrations of modulator/test compounds were added to the cell plate at 50 μL and incubated for five minutes. The fluorescence intensity was captured every second for the first 1 minute followed by every 5 seconds for an additional 4 minutes. This procedure was followed by 50 μL of 4× concentration of agonist and readings were taken for a period of 3-5 minutes as described above.
The ability of test compounds to positively modulate the response (i.e., increase the response) induced by a submaximal concentration of agonist (EC20-30%) such as nicotine is measured. Potentiation is measured based on peak fluorescence responses by screening compounds at fixed concentrations or in a concentration-response manner to derive EC50 values. The concentration dependence of changes in fluorescence responses is fitted by nonlinear regression analysis (GraphPad Prism, San Diego, Calif.) to obtain EC50 values. […]

[2] = target: T2, hERG cardiac potassium channel (Homo sapiens, UniProt Q12809); test: [3H]dofetilide/HEK-293 membrane competition binding assay; details: displacement of [3H]dofetilide, HEK-293 membrane homogenates expressing hERG; Ki from IC50 by Cheng-Prusoff
T2 construct: expressed in transfected cells; host or cells: HEK-293 cells (membrane homogenate)
Excerpt: Drugs that block the cardiac potassium channel encoded by the human ether-a-go-go gene (hERG) have been associated clinically with QT interval prolongation, proarrhythmia, and in some rare cases, sudden cardiac death. The identification of drugs that block hERG has become a critical component of the safety profile. The [^3H]dofetilide/HEK-293 membrane competition binding assay described below permits the ranking of compounds for their potential to block the hERG potassium channel.
[^3H]dofetilide/HEK-293 Membrane Competition Binding Assay
The binding affinity of test drugs for the hERG cardiac potassium channel was determined by their ability to displace tritiated dofetilide (a class III antiarrhythmic drug and potent hERG blocker) in membrane homogenates from HEK-293 cells heterogously expressing the hERG channel. The assay was performed as previously described (Diaz, G.; Daniell, K.; Leitza, S. T.; Martin, R. L.; Su, Z.; McDermott, J. S.; Cox, B. F.; Gintant, G. A. The [^3H]dofetilide binding assay is a predictive screening tool for hERG blockade and proarrhythmia: Comparison of intact cell and membrane preparations and effects of altering [K^+]O. Journal of Pharmacological and Toxicological Methods 2004, 50, 187-199.). Briefly, drug dilutions were prepared from 10 mM dimethyl sulfoxide stocks and the following were added to a 96-well polystyrene plate (Perkin-Elmer Optiplate): 20 μL of assay binding buffer (for total bounds), or 1 μM astemizole (for non-specific bounds), or test drug, 50 μL of [^3H]dofetilide (20 nM, ˜80 Ci/mmol specific activity), and 130 μL of membrane homogenate (final protein concentration of 30 μg per well). The plates were incubated at ambient temperature for 45 minutes, aspirated onto GF/B filter plates (Perkin-Elmer), and washed with 2 mL of cold wash buffer. After allowing the plates to dry, 50 μL of scintillant (Perkin-Elmer MicroScint 20) were added to each well and the radioactivity was counted in a Perkin-Elmer Topcount NXT scintillation counter. IC50 determinations were calculated from competition curves using 6 drug concentrations, half-log apart, starting at a high concentration of 100 μM (final assay dimethyl sulfoxide concentration=1%) using a four-parameter logistic equation. Ki values were derived from the calculated IC50 values by using the Cheng and Prusoff (Cheng, Y.; Prusoff, W. H. Relationship between the inhibition constant (KI) and the concentration of inhibitor which causes 50 percent inhibition (I50) of an enzymatic reaction. Biochemical Pharmacology 1973, 22(23), 3099-3108) equation (Ki=IC50/1+[ligand]/Kd) using Kd values for [^3H]dofetilide obtained from saturation assays previously described (Diaz et al., 2004).

T2 sequence (Q12809 whole entry): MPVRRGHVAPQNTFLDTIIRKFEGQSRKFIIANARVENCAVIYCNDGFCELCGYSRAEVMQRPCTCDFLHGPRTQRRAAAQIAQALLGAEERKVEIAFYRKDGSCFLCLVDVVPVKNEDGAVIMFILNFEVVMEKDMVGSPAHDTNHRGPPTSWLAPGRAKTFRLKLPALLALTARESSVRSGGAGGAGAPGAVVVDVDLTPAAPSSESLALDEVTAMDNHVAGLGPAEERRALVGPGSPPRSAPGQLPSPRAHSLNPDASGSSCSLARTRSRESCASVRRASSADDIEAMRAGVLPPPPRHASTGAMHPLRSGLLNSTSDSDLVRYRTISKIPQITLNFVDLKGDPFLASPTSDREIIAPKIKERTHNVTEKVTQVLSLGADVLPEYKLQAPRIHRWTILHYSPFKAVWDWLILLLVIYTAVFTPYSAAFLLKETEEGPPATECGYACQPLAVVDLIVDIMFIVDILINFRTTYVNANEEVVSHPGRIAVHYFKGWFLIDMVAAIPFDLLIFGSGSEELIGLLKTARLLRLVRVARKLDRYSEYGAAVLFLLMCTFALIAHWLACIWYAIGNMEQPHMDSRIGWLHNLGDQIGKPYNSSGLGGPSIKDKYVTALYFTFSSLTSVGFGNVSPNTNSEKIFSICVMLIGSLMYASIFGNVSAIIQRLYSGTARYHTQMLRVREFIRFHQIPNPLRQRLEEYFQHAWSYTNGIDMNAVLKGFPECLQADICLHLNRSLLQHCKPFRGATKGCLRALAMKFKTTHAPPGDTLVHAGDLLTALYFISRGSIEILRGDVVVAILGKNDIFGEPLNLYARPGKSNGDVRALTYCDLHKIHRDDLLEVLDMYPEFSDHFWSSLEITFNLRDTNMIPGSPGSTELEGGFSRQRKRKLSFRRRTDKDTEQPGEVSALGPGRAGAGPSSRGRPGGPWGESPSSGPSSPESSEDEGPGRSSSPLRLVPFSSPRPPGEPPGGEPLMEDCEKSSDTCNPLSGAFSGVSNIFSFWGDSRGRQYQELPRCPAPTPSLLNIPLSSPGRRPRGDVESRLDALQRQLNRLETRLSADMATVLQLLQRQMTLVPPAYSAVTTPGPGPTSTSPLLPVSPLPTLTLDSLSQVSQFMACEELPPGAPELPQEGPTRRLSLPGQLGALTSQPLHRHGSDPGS
T1 sequence (P43681 29-627 limits assumed): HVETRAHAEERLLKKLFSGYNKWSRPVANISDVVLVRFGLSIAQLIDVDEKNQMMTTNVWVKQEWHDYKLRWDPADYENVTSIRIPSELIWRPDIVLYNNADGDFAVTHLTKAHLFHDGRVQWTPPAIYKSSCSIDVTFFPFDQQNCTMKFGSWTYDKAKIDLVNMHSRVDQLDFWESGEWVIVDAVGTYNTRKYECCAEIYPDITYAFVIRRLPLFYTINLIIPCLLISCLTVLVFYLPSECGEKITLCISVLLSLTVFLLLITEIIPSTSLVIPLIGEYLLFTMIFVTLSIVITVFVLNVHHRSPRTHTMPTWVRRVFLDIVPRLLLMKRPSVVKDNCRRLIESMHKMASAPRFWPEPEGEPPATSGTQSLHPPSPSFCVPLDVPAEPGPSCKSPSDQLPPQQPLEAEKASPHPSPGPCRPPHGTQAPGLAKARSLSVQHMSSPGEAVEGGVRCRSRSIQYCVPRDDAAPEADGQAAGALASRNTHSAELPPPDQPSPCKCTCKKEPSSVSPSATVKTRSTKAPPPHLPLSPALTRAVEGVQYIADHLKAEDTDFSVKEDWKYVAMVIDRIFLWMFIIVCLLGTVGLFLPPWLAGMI
T1 sequence (P17787 26-502): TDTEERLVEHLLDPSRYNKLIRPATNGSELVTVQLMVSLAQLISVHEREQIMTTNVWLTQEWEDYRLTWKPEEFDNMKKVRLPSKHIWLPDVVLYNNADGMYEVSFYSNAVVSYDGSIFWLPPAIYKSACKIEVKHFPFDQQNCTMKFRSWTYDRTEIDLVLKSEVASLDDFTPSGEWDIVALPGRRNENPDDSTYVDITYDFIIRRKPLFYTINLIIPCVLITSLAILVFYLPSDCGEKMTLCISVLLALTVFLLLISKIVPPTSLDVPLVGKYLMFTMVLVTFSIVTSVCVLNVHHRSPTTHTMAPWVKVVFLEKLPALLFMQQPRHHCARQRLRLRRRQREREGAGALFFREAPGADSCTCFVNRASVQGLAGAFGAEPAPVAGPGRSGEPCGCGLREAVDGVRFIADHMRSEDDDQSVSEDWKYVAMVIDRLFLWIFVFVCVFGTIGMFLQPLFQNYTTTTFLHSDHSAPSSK

Row | SMILES | EC50 [1] | Ki [2]
1 | COc1ccc(NC(=O)N2CCC3(CCN(C)CC3)CC2)cc1F [Example 7, N-(3-fluoro-4-methoxyphenyl)-9-methyl-3,9-diazaspiro[5.5]undecane-3-carboxamide] | 1620 nM | 8500 nM
2 | COc1cc(C(=O)N2CCC3(CCN(C)CC3)CC2)ccc1F [Example 2, 3-(4-fluoro-3-methoxybenzoyl)-9-methyl-3,9-diazaspiro[5.5]undecane] | 970 nM | > 53000 nM
3 | COc1ccc(NC(=O)N2CCC3(CCN(C)CC3)CC2)cc1Cl [Example 8, N-(3-chloro-4-methoxyphenyl)-9-methyl-3,9-diazaspiro[5.5]undecane-3-carboxamide] | 610 nM | –
4 | COc1ccc(CC(=O)N2CCC3(CCN(C)CC3)CC2)cc1F [Example 10, 3-[(3-fluoro-4-methoxyphenyl)acetyl]-9-methyl-3,9-diazaspiro[5.5]undecane] | 1690 nM | –
5 | COc1ccc(C(=O)N2CCC3(CCN(C)CC3)CC2)cc1F [Example 3, 3-(3-fluoro-4-methoxybenzoyl)-9-methyl-3,9-diazaspiro[5.5]undecane] | 4300 nM | 13000 nM
6 | COc1cc(C(=O)N2CCC3(CCN(C)CC3)CC2)cc(Cl)c1OC [Example 6, 3-(3-chloro-4,5-dimethoxybenzoyl)-9-methyl-3,9-diazaspiro[5.5]undecane] | 360 nM | > 54000 nM
7 | COc1ccc(C(=O)N2CCC3(CCN(C)CC3)CC2)cc1Cl [Example 4, 3-(3-chloro-4-methoxybenzoyl)-9-methyl-3,9-diazaspiro[5.5]undecane] | 160 nM | 16000 nM
8 | COc1c(Cl)cc(C(=O)N2CCC3(CCN(C)CC3)CC2)cc1Cl [Example 5, 3-(3,5-dichloro-4-methoxybenzoyl)-9-methyl-3,9-diazaspiro[5.5]undecane] | 40 nM | 19000 nM
9 | COc1cc(OC)c(NC(=O)N2CCC3(CCN(C)CC3)CC2)cc1Cl [Example 9, N-(5-chloro-2,4-dimethoxyphenyl)-9-methyl-3,9-diazaspiro[5.5]undecane-3-carboxamide] | 3740 nM | –
